Experiments:
[1] = tested on: SNU-C1; assay: Cell mobility (transwell) of irradiated SNU-C1 cells; type: cell-based, human; settings: SNU-C1, 10 Gy, 10 μM, 24 hours
Method: (§1) Cell mobility was measured using a 24 mm transwell with […]. After stabilizing the cells irradiated with 10 Gy of radiation for 24 hours, the cells were suspended in a medium and seeded in the upper chamber of the transwell, and the lower chamber was filled with a medium containing 10% fetal bovine serum (FBS) and 10 μM butyric acid (BA), ginsenosides Rh1, Rh2, Ro, Rb1, curcumin (CU), and sucralfate (SCF) either alone or in combination, and culturing was performed. After 24 hours of culture, the downside of the transwell was stained with crystal violet dye, and the stained cells were counted by observing them with an inverted microscope.

[2] = tested on: HUVEC; assay: Vascular endothelial cell tube formation after irradiation; type: cell-based, human; settings: irradiated HUVEC, 10 μM, alone or in combination
Method: After irradiating human umbilical endothelial cells (HUVEC) with 10 Gy of radiation, the cells were seeded on a matrigel-coated u-slide, and were treated with 10 μM of curcumin (CU), butyric acid (BA), sucralfate (SCF), ginsenosides Rh1, Rh2, Rb1, or Ro either alone or in combination.
It was investigated whether a treatment with curcumin (CU), butyric acid (BA), sucralfate (SCF), and ginsenoside Rh1 (Rh1) alone or in combination restored the function of HUVEC cells damaged by radiation.

[3] = tested on: human dermal fibroblasts (HDF); assay: Cell mobility (transwell) of irradiated human dermal fibroblasts; type: cell-based; settings: 10 μM, alone or in combination
Method: as §1

[4] = tested on: HCT116; assay: Cell viability (Cell Counting Kit-8) of irradiated HCT116 cells; type: cell-based, human; settings: HCT116, 10 Gy, 48 hours
Method: (§2) Human colon cancer cell lines (HCT116 and SNU-C1), a human dermal fibroblast cell line and a human keratinocyte cell line (HaCaT) were cultured in Dulbecco's modified eagles medium-high glucose (DMEM) containing 10% fetal bovine serum (FBS), 100 units/mL penicillin, and 100 μg/mL streptomycin. A Human umbilical vascular endothelial cell line (HUVEC) was cultured in a vascular cell basal medium (ATCC) containing Endothelial cell growth kit-VEGF (ATCC). All of the above cells were cultured in a 5% CO2 cell incubator at 37° C.
(§3) Cell viability test was performed using Cell Counting Kit-8. HCT116 and SNU-C1 cell lines, which are colon cancer cells, were seeded on 60 mm culture dishes and cultured, and then irradiated with 10 Gy of radiation. The cells were harvested, seeded on 96-well culture plates, and incubated, and then the cells were treated with butyric acid (BA), ginsenosides Rh1, Rh2, Ro, Rb1, and curcumin (CU) at concentrations of 5, 10, or 50 μM, respectively. After 48 hours, cell viability was analyzed using Cell Counting Kit-8 and a microplate reader.
(§4) In order to investigate the effects of curcumin (CU), butyric acid (BA), and ginsenoside on the decreased cell viability due to irradiation, HCT116 and SNU-C1 cells were treated with curcumin, butyric acid, ginsenoside Rh1, Rh2, Ro, or Rb1 at concentrations of 5, 10, and 50 μM, respectively, and the viability of each cell was measured (FIGS. 1 and 2).

[5] = tested on: SNU-C1; assay: Cell viability (Cell Counting Kit-8) of irradiated SNU-C1 cells; type: cell-based, human; settings: SNU-C1, 10 Gy, 48 hours
Method: as §2, §3, §4

[6] = tested on: HCT116; assay: Cell mobility (transwell) of irradiated HCT116 cells; type: cell-based, human; settings: HCT116, 10 Gy, 10 μM, 24 hours
Method: as §1
The experiment was conducted using the same manner as Experimental Example 3, except that the effective agents for treatment were a combination of curcumin, butyric acid, sucralfate, and ginsenoside.

[7] = tested on: skin of irradiated mice; settings: cited from earlier work
[8] = tested on: intestinal epithelial cells; settings: cited from earlier work
[9] = tested on: radiation proctitis model mouse; assay: Radiation proctitis model mouse: pathological morphology of colon and rectal tissue (H&E); type: in vivo; settings: 27 Gy, intrarectal, 14 days, vs irradiated group (IR)
Method: by administration of combination drug to proctitis model mouse C57BL/6 mice (5 weeks old, female) were irradiated with 27 Gy of radiation, and then divided into test groups as shown in Table 4 and FIG. 13. From the next day, samples prepared at concentrations as shown in Table 5 and FIG. 14 (formulated using the method of Example 1) were administered intrarectally at 2-3 day intervals for a total of 6 times (FIG. 16).
The efficacy of the treated samples was confirmed 14 days after the final radiation. In this case, except for the non-irradiated group (n=5), all test treatment groups were conducted with 7 mice per group. A flexible plastic tube was inserted into the rectum for administration, and a formulation containing approximately 50 μl of the compound was administered per mouse at a time.
In addition, pathological morphological analysis of the intestinal tissue was performed by observing the morphology of each treatment group through a microscope after performing H&E staining.
Specifically, the extracted organs were fixed in 10% formalin and paraffin blocks were created (STP120 Spin tissue Processor, Myr). Thereafter, sections were mounted on slides using a microtome (Finesse ME Microtome, Thermo Shandon), dried, deparaffinized and hydrated to create tissue slides. […]

[10] = 5 μM or 10 μM, vs irradiated group

CC(C)=CCC[C@](C)(O[C@@H]1O[C@H](CO[C@@H]2O[C@H](CO)[C@@H](O)[C@H](O)[C@H]2O)[C@@H](O)[C@H](O)[C@H]1O)[C@H]1CC[C@]2(C)[C@@H]1[C@H](O)C[C@@H]1[C@@]3(C)CC[C@H](O[C@@H]4O[C@H](CO)[C@@H](O)[C@H](O)[C@H]4O[C@@H]4O[C@H](CO)[C@@H](O)[C@H](O)[C@H]4O)C(C)(C)[C@@H]3CC[C@]12C [Rb1, ginsenoside Rb1]
cell mobility rate compared to the irradiated group [1]: significantly increased

CC(C)=CCC[C@](C)(O)[C@H]1CC[C@]2(C)C1[C@H](O)C[C@@H]1[C@@]3(C)CC[C@H](O)C(C)(C)[C@@H]3[C@@H](O[C@@H]3O[C@H](CO)[C@@H](O)[C@H](O)[C@H]3O)C[C@]12C (stereo partly shown) [Rh1, ginsenoside Rh1]
Tube length (%), average value [2]: 15%
Mobility rate (%), average value [3]: 99%

CC(C)=CCC[C@](C)(O)[C@H]1CC[C@]2(C)[C@@H]1[C@H](O)C[C@@H]1[C@@]3(C)CC[C@H](O[C@@H]4O[C@H](CO)[C@@H](O)[C@H](O)[C@H]4O)C(C)(C)[C@@H]3CC[C@]12C [Rh2, ginsenoside Rh2]
cell viability compared to the irradiated group ([4]; 50 μM): lower cell viabilities than the irradiated group
cell viability compared to the irradiated group ([5]; 50 μM): lower cell viabilities than the irradiated group
cell mobility rate compared to the irradiated group [6]: highest cell mobility recovery rate

CC1(C)CC[C@]2(C(=O)O[C@@H]3O[C@H](CO)[C@@H](O)[C@H](O)[C@H]3O)CC[C@]3(C)C(=CC[C@@H]4[C@@]5(C)CC[C@H](O[C@@H]6O[C@H](C(=O)O)[C@@H](O)[C@H](O)[C@H]6O[C@@H]6O[C@H](CO)[C@@H](O)[C@H](O)[C@H]6O)C(C)(C)[C@@H]5CC[C@]43C)[C@@H]2C1 [Ro, ginsenoside Ro]
cell viability compared to the irradiated group ([4]; 5 μM): lower cell viabilities than the irradiated group
cell viability compared to the irradiated group ([5]; 5 μM): lower cell viabilities than the irradiated group

CCCC(=O)O [butyric acid, Butyric acid]
Tube length (%), average value [2]: 14%
Mobility rate (%), average value [3]: 76%
cell mobility rate compared to the irradiated group [6]: double increase

COc1cc(/C=C/C(=O)CC(=O)/C=C/c2ccc(O)c(OC)c2)ccc1O [curcumin]
cell viability decreased by irradiation [4, 10]: significantly increased
cell viability compared to the irradiated group ([4]; 50 μM): lower cell viabilities than the irradiated group
cell viability decreased by irradiation [5, 10]: significantly increased
cell viability compared to the irradiated group ([5]; 50 μM): lower cell viabilities than the irradiated group
Tube length (%), average value [2]: 15%
Mobility rate (%), average value [3]: 130%
cell mobility rate compared to the irradiated group [1]: significantly increased
cell mobility rate compared to the irradiated group [6]: double increase
skin damage ([7]; irradiated mice): restoring skin damage
expression of inflammatory cytokines and fibrogenic cytokines ([7]; skin of irradiated mice): reducing the expression

CC(C)=CCC[C@](C)(O[C@@H]1O[C@H](CO)[C@@H](O)[C@H](O)[C@H]1O)[C@H]1CC[C@]2(C)[C@@H]1[C@H](O)C[C@@H]1[C@@]3(C)CC[C@H](O[C@@H]4O[C@H](CO)[C@@H](O)[C@H](O)[C@H]4O[C@@H]4O[C@H](CO)[C@@H](O)[C@H](O)[C@H]4O)C(C)(C)[C@@H]3CC[C@]12C [ginsenoside Rd]
apoptosis induced by irradiation [8]: inhibit apoptosis

Sucralfate [reference compound]
epithelium loss and crypt damage induced by irradiation [9]: recovered in all sample treatment groups except the sucralfate treatment group
Tube length (%), average value [2]: 14%
Mobility rate (%), average value [3]: 91%

Reference: patent US20250213592A1, “PHARMACEUTICAL COMPOSITION COMPRISING CURCUMIN AND GINSENOSIDE, AND FORMULATION THEREOF” (CORESTEMCHEMON INC., priority 2022, published 2025)
